Assays:
[1] = as described in US patent 4749518; cited from earlier work
[2] = as described in US patent 4749518; cited from earlier work; remark: listed apart in the source
[3] = as described in US patent 4749518; cited from earlier work; remark: listed apart in the source
[4] = as described in US patent 4749518; cited from earlier work; remark: listed apart in the source
[5] = as described in US patent 4749518; with dinanylnaphthalene sulfonic acid in tributyl phosphate and kerosene; cited from earlier work
[6] = as described in US patent 4749518; cited from earlier work; remark: listed apart in the source
[7] = as described in US patent 4749518; cited from earlier work; remark: listed apart in the source
[8] = as described in US patent 4749518; cited from earlier work; remark: listed apart in the source
[9] = as described in US patent 4749518; cited from earlier work; remark: listed apart in the source
[10] = Radiation resistance of the extractants (gamma irradiation); format: physicochemical; conditions: for Distribution ratio DMe after irradiation / Distribution ratio after irradiation, % of original: dose 100.0 kGr (10^7 rad); for Usefulness of extractant after irradiation: dose 285.3 kGr
Excerpt: The radiation resistance of the extractants according to the invention used for extraction radionuclides of strontium or cesium was studied. For this purpose, reaction mixtures consisting of biphase water-organic systems containing extractants based on crown ethers DCH18C6 or DB21C7 in Fluoroheptanol n3 and aqueous nitrate waste solutions, and, for comparison, reaction mixtures containing extractants based on crown ethers Crown XVI or Crown XVII with a cation exchanger—dinanylnaphthalene of sulfonic acids in a matrix solution comprising tributyl phosphate and kerosene were irradiated with gamma-rays […] in a temperature-controlled cell of stainless steel with continuous agitation by bubbling. The maximum integrated radiation dose was equal to 285.3 kGr. The extractant samples were tested and the extraction characteristics were measured before and after the irradiation to determine a decrease of the distribution ratio DMe due to the radiological destruction of extractant components.

[11] = Influence of nitric acid concentration on extraction of sodium; format: physicochemical; conditions: crown ether about 0.1 mol/l in Fluoroheptanol n3
Procedure: Selected for study were extractants containing crown ethers: DB18C6, DTBDB18C6, DCH18C6 or DB21C7 in a concentration of about 0.1 mol/l in Fluoroheptanol n3. Used as experimental solutions were aqueous solutions of sodium nitrate whose concentration was determined using radiometric techniques on previously added aliquot of a sodium-22 isotope.

[12] = Interaction of extractants with sodium (organic/aqueous phase concentration); format: physicochemical
Procedure: The characteristics of the extractants according to the invention in the process of extraction of sodium from acidic aqueous solutions of high-level waste were determined. For this purpose, the concentration of sodium in the organic and aqueous phases containing extractants based on DTBDB18C6 or DCH18C6 or DB21C7 in a concentration about of 0.05 mol/l in fluoroheptanol n3 were analyzed.

[13] = Distribution ratio of strontium extracted in organic solutions of crown ethers (Table 1); format: physicochemical; conditions: Sr and Cs 1 g/l, nitric acid about 3.0 mol/l
Procedure: (§1) Study was carried out for determining the distribution ratios of radionuclides, for example, strontium or cesium to be extracted by the extractants according to the invention containing various crown ethers as a complexing agent: bis(tert-butylbenzo)-18-crown-6 (subsequently referred to as DTBDB18C6), di-isooctylbenzo-18-crown-6 (subsequently referred to as DIODB18C6), bis(tert-butylcyclohexane-18-crown-6 (subsequently referred to as DTBDCH18C6), di-isooxyldicyclohexane-18-crown-6 (subsequently referred to as DIODCH18C6), bicyclohexane-18-crown-6 (subsequently referred to as DCH18C6) or dibenzo-21-crown-7 (subsequently referred to as DB21C7), in an organic solvent according to the invention: polyfluorinated telomeric alcohol 1,1,7-trihydrododecafluoroheptanol-1 (subsequently referred to as fluoroheptanol n3).
(§2) For comparison, the distribution ratios of strontium and cesium were determined using extractants containing similar crown ethers in another organic solvent (decane).
(§3) Taken for the tests were experimental aqueous nitrate solutions containing strontium and cesium in a concentration of 1 g/l with a content of nitric acid of about 3.0 mol/l.

[14] = Influence of sodium concentration on extraction of cesium; format: physicochemical; conditions: Cs 1 g/l, nitric acid about 3.0 mol/l
Procedure: Extraction of cesium was made involving starting solutions containing 1 g/l of cesium in nitric acid having concentration about of 3.0 mol/l at different concentration of sodium. The solutions were treated with the extractants according to the invention containing crown ether DTBDB18C6 in a concentration about of 0.1 mol/l in fluoroheptanol n3.

[15] = Influence of nitric acid concentration on cesium extraction from solution No.1; format: physicochemical; conditions: solution No.1
Excerpt: The dependence of extraction of cesium by organic solutions DTBDB18C6 in fluoropentanol n3 and DB21C7 in Fluoroheptanol n3 at a concentration of nitric acid in a starting solution was studied. Solution No.1 whose composition is listed in Table 2 was used as a starting solution.

[16] = Distribution ratio of cesium extracted in organic solutions of crown ethers (Table 1); format: physicochemical; conditions: Sr and Cs 1 g/l, nitric acid about 3.0 mol/l
Procedure: as §1, §2, §3

[17] = crown ether 0.1 mole/l in Fluoroheptanol n3
[18] = crown ether 0.1 mole/l in Decane

Compound: CCCCCCC(O)C1CCC2OCCOCCOC3CCC(C(O)CCCCCC)CC3OCCOCCOC2C1 (mixture of isomers) [Crown XVI, bis-4,4′(5′)[1-hydroxyheptyl]cyclohexo-18-crown-6]
- Distribution ratios, Pd [1]: 0.05
- Distribution ratios, Sr [2]: 3.84
- Distribution ratios, Rb [3]: 0.11
- Distribution ratios, Y [4]: 0.02
- Distribution ratios, Ba [5]: 4.2
- Distribution ratios, Cs [6]: 0.03
- Distribution ratios, Ru [7]: 0.26
- Distribution ratios, Zr [8]: 1.41
- Distribution ratios, Rare-earth [9]: 0.06
- Distribution ratio before irradiation ([10]; Sr): 1.98
- Distribution ratio DMe after irradiation ([10]; Sr): 1.56
- Distribution ratio after irradiation, % of original ([10]; Sr): 78.78%
- Loss of the distribution ratio of strontium after irradiation ([10]; dose 100 kGr): about 21%
- Usefulness of extractant after irradiation [10]: practically useless

Compound: CCCCC(CC)C(O)c1ccc2c(c1)OCCOCCOc1cc(C(O)C(CC)CCCC)ccc1OCCOCCO2 (mixture of isomers) [Crown XVII, bis-4,4′(5′)[1-hydroxy-2-ethylhexyl]benzo-18-crown-6]
- Distribution ratios, Pd [1]: 0.22
- Distribution ratios, Sr [2]: 0.06
- Distribution ratios, Rb [3]: 0.29
- Distribution ratios, Y [4]: 0.02
- Distribution ratios, Ba [5]: 0.03
- Distribution ratios, Cs [6]: 1.59
- Distribution ratios, Ru [7]: 0.31
- Distribution ratios, Zr [8]: 2.09
- Distribution ratios, Rare-earth [9]: 0.17
- Distribution ratio before irradiation ([10]; Cs): 1.59
- Distribution ratio DMe after irradiation ([10]; Cs): 1.04
- Distribution ratio after irradiation, % of original ([10]; Cs): 65.41%
- Reduction of the distribution ratio of cesium after irradiation ([10]; dose 100 kGr): 35%
- Usefulness of extractant after irradiation [10]: practically useless

Compound: c1ccc2c(c1)OCCOCCOc1ccccc1OCCOCCO2 [DB18C6, dibenzo-18-crown-6]
- Distribution ratios of sodium ([11]; nitric acid 0 mol/l): 0.025
- Distribution ratios of sodium ([11]; nitric acid 0.1 mol/l): 0.04
- Distribution ratios of sodium ([11]; nitric acid 0.5 mol/l): 0.15
- Distribution ratios of sodium ([11]; nitric acid 1.0 mol/l): 0.21
- Distribution ratios of sodium ([11]; nitric acid 3.0 mol/l): 0.49
- Distribution ratios of sodium ([11]; nitric acid 5.0 mol/l): 0.67

Compound: CC(C)(C)c1ccc2c(c1)OCCOCCOc1ccc(C(C)(C)C)cc1OCCOCCO2 [DTBDB18C6, bis(tert-butylbenzo)-18-crown-6]
- Sodium concentration in the organic phase ([12]; sodium in the aqueous phase 0.01 mol/l, crown ether about 0.05 mol/l in fluoroheptanol n3): 0 mol/L
- Sodium concentration in the organic phase ([12]; sodium in the aqueous phase 0.1 mol/l, crown ether about 0.05 mol/l): 0.035 mol/L
- Sodium concentration in the organic phase ([12]; sodium in the aqueous phase 0.2 mol/l, crown ether about 0.05 mol/l): 0.07 mol/L
- Sodium concentration in the organic phase ([12]; sodium in the aqueous phase 0.4 mol/l, crown ether about 0.05 mol/l): 0.14 mol/L
- Distribution ratios of sodium ([11]; nitric acid 0 mol/l): 0.03
- Distribution ratios of sodium ([11]; nitric acid 0.1 mol/l): 0.04
- Distribution ratios of sodium ([11]; nitric acid 0.5 mol/l): 0.17
- Distribution ratios of sodium ([11]; nitric acid 1.0 mol/l): 0.27
- Distribution ratios of sodium ([11]; nitric acid 3.0 mol/l): 0.55
- Distribution ratios of sodium ([11]; nitric acid 5.0 mol/l): 0.64
- Distribution ratio Strontium [13, 17]: 0.11
- Cesium distribution ratio ([14]; sodium nitrate 0 mole/l, crown ether about 0.1 mol/l in fluoroheptanol n3): 16.0
- Cesium distribution ratio ([14]; sodium nitrate 0.02 mole/l): 9.0
- Cesium distribution ratio ([14]; sodium nitrate 0.03 mole/l): 9.1
- Cesium distribution ratio ([14]; sodium nitrate 0.04 mole/l): 9.3
- Cesium distribution ratio ([14]; sodium nitrate 0.20 mole/l): 3.0
- Distribution ratios of cesium ([15]; nitric acid 0 mol/l, Fluoroheptanol n3): 2.5
- Distribution ratios of cesium ([15]; nitric acid 0.1 mol/l): 7.1
- Distribution ratios of cesium ([15]; nitric acid 0.5 mol/l): 12.8
- Distribution ratios of cesium ([15]; nitric acid 1.0 mol/l): 12.3
- Distribution ratios of cesium ([15]; nitric acid 2.0 mol/l): 10.3
- Distribution ratios of cesium ([15]; nitric acid 3.0 mol/l): 8.2
- Distribution ratios of cesium ([15]; nitric acid 4.0 mol/l): 6.0
- Distribution ratios of cesium ([15]; nitric acid 5.0 mol/l): 4.0
- Distribution ratios of cesium ([15]; nitric acid 6.0 mol/l): 2.7
- Distribution ratios of cesium ([15]; nitric acid 7.0 mol/l): 1.1
- Distribution ratios of cesium ([15]; nitric acid 8.0 mol/l): 0
- Distribution ratio Cesium [16, 17]: 15.45

Compound: CC(C)(C)C1CCC2OCCOCCOC3CC(C(C)(C)C)CCC3OCCOCCOC2C1 (centres unmarked) [DTBDCH18C6]
- Distribution ratio Strontium [13, 18]: <0.001
- Distribution ratio Strontium [13, 17]: 1.91

Compound: di-isooctylbenzo-18-crown-6 [DIODB18C6]
- Distribution ratio Strontium [13, 18]: 0.05
- Distribution ratio Strontium [13, 17]: 0.06
- Distribution ratio Cesium [16, 18]: 0.004
- Distribution ratio Cesium [16, 17]: 4.23

Compound: di-isooxyldicyclohexane-18-crown-6 [DIODCH18C6]
- Distribution ratio Strontium [13, 18]: <0.001
- Distribution ratio Strontium [13, 17]: 0.106
- Distribution ratio Cesium [16, 18]: 0.004

Reference: patent US20080014133A1, “Extraction Of Radionuclides By Crown Ether-Containing Extractants” (priority 2004, published 2008)
